Data published in ChEMBL document CHEMBL5244277, “A review upon medicinal perspective and designing rationale of DPP-4 inhibitors” (Bioorg Med Chem, 2021).
Converted amounts (≈) assume the structure as drawn.

Tests used:
Dipeptidyl peptidase 9 = Dipeptidyl peptidase 9 (Homo sapiens, UniProt Q86TI2); test: Inhibition of DPP-9 (unknown origin)
Dipeptidyl peptidase 8 = Dipeptidyl peptidase 8 (Homo sapiens, UniProt Q6V1X1); test: Inhibition of DPP-8 (unknown origin)
Dipeptidyl peptidase 4 [1] = target: T1, Dipeptidyl peptidase 4 (Homo sapiens, UniProt P27487); format: cell-based, Caco-2
Target sequence in this assay (P27487 whole entry): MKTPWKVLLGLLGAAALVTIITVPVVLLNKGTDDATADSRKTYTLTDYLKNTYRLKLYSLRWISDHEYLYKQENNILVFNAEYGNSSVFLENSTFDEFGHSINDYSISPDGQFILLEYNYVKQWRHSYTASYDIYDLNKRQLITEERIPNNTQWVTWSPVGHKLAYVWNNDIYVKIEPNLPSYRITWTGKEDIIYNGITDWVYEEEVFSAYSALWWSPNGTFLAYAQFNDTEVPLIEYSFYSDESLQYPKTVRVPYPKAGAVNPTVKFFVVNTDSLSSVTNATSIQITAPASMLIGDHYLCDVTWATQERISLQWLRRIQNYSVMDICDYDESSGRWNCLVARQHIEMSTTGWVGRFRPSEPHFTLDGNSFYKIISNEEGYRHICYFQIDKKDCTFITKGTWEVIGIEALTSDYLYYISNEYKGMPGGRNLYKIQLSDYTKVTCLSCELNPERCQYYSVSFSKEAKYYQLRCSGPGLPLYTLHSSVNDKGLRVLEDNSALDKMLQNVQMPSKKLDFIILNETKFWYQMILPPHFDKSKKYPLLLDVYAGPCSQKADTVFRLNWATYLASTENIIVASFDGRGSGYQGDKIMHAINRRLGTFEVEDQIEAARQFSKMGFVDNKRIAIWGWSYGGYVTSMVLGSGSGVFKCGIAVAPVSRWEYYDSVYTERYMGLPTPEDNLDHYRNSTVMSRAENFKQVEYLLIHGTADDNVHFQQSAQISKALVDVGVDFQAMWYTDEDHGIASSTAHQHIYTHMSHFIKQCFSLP

Mus musculus [2] = test: Hypoglycemic activity in C57BL/6J mouse assessed as reduction in blood glucose level at 10 mg/kg, po measured at 20 to 80 mins by OGTT analysis; format: functional; set-up: scale not given: the % may be the effect or the level left; details: time 20-80 min
[3] = target: T2, Voltage-gated inwardly rectifying potassium channel KCNH2 (Homo sapiens, UniProt Q12809); test: Inhibition of hERG by thallium flux assay; format: toxicity
T2 sequence (Q12809 whole entry): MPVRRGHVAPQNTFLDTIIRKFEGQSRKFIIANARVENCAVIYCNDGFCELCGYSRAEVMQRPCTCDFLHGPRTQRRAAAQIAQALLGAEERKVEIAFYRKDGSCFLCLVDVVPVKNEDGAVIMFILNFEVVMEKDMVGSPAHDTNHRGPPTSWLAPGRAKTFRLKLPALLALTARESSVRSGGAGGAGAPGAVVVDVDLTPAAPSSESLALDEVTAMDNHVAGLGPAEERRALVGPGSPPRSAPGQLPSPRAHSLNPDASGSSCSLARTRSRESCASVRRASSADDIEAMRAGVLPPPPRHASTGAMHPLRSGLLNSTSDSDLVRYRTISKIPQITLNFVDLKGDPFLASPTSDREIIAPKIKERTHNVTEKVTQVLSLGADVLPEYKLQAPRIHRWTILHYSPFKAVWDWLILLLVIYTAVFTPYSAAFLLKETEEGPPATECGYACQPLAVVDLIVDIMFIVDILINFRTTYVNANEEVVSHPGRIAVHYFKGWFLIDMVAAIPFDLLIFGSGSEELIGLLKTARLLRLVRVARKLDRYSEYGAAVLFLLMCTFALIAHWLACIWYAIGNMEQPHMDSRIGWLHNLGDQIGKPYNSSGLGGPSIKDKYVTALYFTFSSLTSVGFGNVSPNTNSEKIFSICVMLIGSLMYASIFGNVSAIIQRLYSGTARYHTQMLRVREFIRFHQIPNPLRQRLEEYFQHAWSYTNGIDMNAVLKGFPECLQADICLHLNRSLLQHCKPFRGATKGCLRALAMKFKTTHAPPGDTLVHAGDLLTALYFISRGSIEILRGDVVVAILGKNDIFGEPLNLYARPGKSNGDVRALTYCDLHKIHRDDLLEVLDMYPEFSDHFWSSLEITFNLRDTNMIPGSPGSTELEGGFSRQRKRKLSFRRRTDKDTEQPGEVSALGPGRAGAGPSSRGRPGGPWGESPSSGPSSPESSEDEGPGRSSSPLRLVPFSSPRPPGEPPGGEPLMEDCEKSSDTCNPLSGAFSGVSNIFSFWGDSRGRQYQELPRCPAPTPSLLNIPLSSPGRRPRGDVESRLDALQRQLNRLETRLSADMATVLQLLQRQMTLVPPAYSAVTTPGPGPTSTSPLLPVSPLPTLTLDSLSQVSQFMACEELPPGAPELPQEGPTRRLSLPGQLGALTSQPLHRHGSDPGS

[4] = Oral bioavailability in ICR mouse at 15 mg/kg; format: ADME, organism-based; details: in vivo
[5] = target: T2, Voltage-gated inwardly rectifying potassium channel KCNH2; test: Inhibition of hERG channel by patch clamp assay; format: toxicity
[6] = Blood glucose AUC in ICR mouse at 15 mg/kg; details: in vivo
[7] = Half life in ICR mouse at 15 mg/kg; format: ADME, organism-based; details: in vivo
Rattus norvegicus [8] = test: Antihyperglycemic activity in STZ-induced diabetic rat model assessed as reduction in blood glucose level at 100 mg/kg, po measured upto 24 hrs; format: functional; set-up: scale not given: the % may be the effect or the level left
Rattus norvegicus [9] = test: Anti-hyperglycemic activity in STZ-induced diabetic rat model assessed as improvement in glucose tolerance level at 30 mg/kg, po measured on day 15; format: functional
Rattus norvegicus [10] = test: Anti-hyperglycemic activity in STZ-induced diabetic rat model assessed as improvement in glucose tolerance level at 30 mg/kg, po measured on day 10; format: functional; details: time 10 day
Dipeptidyl peptidase 4 [11] = target: T1, Dipeptidyl peptidase 4
Target sequence in this assay (P27487 whole entry): as the sequence (P27487 whole entry) above

Dipeptidyl peptidase 4 [12] = target: T1, Dipeptidyl peptidase 4; test: Inhibition of DPP4 (unknown origin) using Gly-Pro-AMC as substrate incubated for 30 mins by spectroscopic analysis
Target sequence in this assay (P27487 whole entry): as above

Dipeptidyl peptidase 4 [13] = target: T1, Dipeptidyl peptidase 4; test: Inhibition of human recombinant DPP-4 at 25 uM using Gly-Pro-Aminomethylcoumarin as substrate by Spectra max fluorometer analysis relative to control
Target sequence in this assay (P27487 whole entry, looked up): as the sequence (P27487 whole entry) above

[14] = Antioxidant activity assessed as DPPH radical scavenging activity; format: functional
Dipeptidyl peptidase 4 [15] = target: T1, Dipeptidyl peptidase 4; test: Inhibition of human recombinant DPP-4 at 100 uM using Gly-Pro-Aminomethylcoumarin as substrate by Spectra max fluorometer analysis relative to control
Target sequence in this assay (P27487 whole entry, looked up): as the sequence (P27487 whole entry) above

[16] = Half life in mouse; format: ADME, organism-based; details: in vivo
Homo sapiens = species on record: Homo sapiens; test: Selectivity index, ratio of IC50 for DPP-4 (unknown origin) to IC50 for DPP-8 (unknown origin)
Mus musculus [17] = test: Antidiabetic activity in C57BL/6J mouse assessed as decrease in AUC of glucose at 3 mg/kg, po; format: functional; set-up: scale not given: the % may be the effect or the level left
Dipeptidyl peptidase 4 [18] = target: T1, Dipeptidyl peptidase 4; test: Inhibition of DPP-4 (unknown origin) at 100 uM relative to control
Target sequence in this assay (P27487 whole entry, looked up): as the sequence (P27487 whole entry) above

Dipeptidyl peptidase 4 [19] = target: T1, Dipeptidyl peptidase 4; remark: listed apart in the source
Target sequence in this assay (P27487 whole entry, looked up): as the sequence (P27487 whole entry) above

[20] = Bioavailability in rat; format: ADME, organism-based; details: in vivo
Mus musculus [21] = test: Hypoglycemic activity in KKAy mouse assessed as reduction in blood glucose level at 10 mg/kg; format: ADME, organism-based; set-up: scale not given: the % may be the effect or the level left; details: in vivo
Mus musculus [22] = test: Hypoglycemic activity in ICR mouse assessed as reduction in blood glucose level at 1 mg/kg; format: ADME, organism-based; set-up: scale not given: the % may be the effect or the level left; details: in vivo
Mus musculus [23] = test: Antidiabetic activity in ICR mouse assessed as decrease in AUC of glucose at 10 mg/kg, po; format: functional; set-up: scale not given: the % may be the effect or the level left
Mus musculus [24] = test: Antidiabetic activity in ICR mouse assessed as decrease in AUC of glucose at 3 mg/kg, po; format: functional; set-up: scale not given: the % may be the effect or the level left
Dipeptidyl peptidase 4 [25] = target: T1, Dipeptidyl peptidase 4; remark: listed apart in the source
Target sequence in this assay (P27487 whole entry): as above

Sequence of Dipeptidyl peptidase 9 (Q86TI2 whole entry): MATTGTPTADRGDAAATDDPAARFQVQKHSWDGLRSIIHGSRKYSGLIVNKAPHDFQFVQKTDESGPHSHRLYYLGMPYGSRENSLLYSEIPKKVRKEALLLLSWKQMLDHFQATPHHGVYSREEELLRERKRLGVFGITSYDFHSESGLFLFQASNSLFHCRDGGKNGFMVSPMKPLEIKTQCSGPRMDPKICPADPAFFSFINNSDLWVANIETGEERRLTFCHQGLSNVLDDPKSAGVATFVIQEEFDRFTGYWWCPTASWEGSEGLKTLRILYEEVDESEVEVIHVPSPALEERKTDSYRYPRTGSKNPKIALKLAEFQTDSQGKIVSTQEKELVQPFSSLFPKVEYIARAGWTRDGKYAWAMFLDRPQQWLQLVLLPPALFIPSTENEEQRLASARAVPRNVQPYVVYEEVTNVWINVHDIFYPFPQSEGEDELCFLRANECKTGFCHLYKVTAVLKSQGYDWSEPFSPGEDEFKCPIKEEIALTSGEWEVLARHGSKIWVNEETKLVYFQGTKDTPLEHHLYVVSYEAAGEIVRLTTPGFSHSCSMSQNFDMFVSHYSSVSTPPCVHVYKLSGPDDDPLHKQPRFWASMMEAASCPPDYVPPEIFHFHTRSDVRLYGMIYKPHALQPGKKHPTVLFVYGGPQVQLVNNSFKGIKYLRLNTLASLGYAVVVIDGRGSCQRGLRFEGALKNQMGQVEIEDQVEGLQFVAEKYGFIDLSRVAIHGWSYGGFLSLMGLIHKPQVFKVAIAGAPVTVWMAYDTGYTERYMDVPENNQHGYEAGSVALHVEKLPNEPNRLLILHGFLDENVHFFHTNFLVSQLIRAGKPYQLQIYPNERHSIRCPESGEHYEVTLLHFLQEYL
Sequence of Dipeptidyl peptidase 8 (Q6V1X1 whole entry): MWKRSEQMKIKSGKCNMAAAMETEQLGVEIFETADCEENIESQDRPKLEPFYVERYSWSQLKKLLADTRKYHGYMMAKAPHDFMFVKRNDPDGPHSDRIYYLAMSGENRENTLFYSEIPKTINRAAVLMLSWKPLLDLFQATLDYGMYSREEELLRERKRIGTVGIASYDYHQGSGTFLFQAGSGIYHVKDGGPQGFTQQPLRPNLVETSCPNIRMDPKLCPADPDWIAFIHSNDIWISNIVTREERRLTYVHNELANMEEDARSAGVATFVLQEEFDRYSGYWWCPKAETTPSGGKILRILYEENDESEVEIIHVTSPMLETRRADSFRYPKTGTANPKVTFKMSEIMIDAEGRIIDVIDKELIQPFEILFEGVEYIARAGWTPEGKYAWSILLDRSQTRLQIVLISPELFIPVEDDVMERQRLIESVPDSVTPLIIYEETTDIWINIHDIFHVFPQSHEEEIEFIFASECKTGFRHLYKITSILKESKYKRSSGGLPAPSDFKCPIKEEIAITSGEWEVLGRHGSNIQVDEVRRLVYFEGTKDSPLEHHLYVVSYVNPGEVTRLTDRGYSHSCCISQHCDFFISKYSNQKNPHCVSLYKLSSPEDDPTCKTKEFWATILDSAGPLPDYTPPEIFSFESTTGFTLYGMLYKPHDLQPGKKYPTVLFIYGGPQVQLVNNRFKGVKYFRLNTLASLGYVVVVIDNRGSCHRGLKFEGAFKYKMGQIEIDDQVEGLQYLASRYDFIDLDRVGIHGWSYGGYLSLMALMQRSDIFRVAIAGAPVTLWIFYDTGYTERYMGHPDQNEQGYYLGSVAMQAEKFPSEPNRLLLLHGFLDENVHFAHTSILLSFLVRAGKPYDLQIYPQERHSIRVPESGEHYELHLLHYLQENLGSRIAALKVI

With `Cc1nc2cc(-c3ccccc3Cl)nn2c(-c2ccc(Cl)cc2Cl)c1CO` the Ki (Dipeptidyl peptidase 9) was > 30000 nM and the Ki (Dipeptidyl peptidase 8) was > 30000 nM.

For `CN1CCN(S(=O)(=O)c2cccc(C(=O)NC[C@@H]3CCCN3C(=O)C[C@H](N)[C@H]3CCc4cc(F)c(F)cc43)c2)CC1`, the IC50 (Dipeptidyl peptidase 4 [1]) was 1.1 nM and the Activity (Mus musculus [2]) was 34%.

For `N#C[C@@H]1C[C@H](F)CN1C(=O)[C@@H](N)Cc1cc(Cl)c(Cl)cc1Cl`, the IC50 [3] was 97700 nM, the bioavailability [4] was 53.2% and the IC50 [5] was > 40000 nM. It also gave a glucose AUC [6] of 795 mmol/L/min and a half-life [7] of 2.03 h.

Compound `N[C@@H](CC(=O)N1CCC[C@H]1CNC(=O)c1cc(S(=O)(=O)N2CCC2)c(F)cc1F)[C@H]1CCc2cc(F)c(F)cc21` has an IC50 (Dipeptidyl peptidase 4 [1]) of 0.87 nM.

Work on `O=C(CN1CCN(c2cccc(Cl)c2)CC1)N1CCCCC1` yielded an Activity (Rattus norvegicus [8]) of 24.6%, an Activity (Rattus norvegicus [9]) of 19.4% and an Activity (Rattus norvegicus [10]) of 11.8%.

In the case of `Cc1c(-c2cc(S(=O)(=O)c3ccccc3)n[nH]2)c(=O)n(C)n1C`, the IC50 (Dipeptidyl peptidase 4 [11]) is reported as < 15 nM.

In the case of `O=C([C@H]1CC[C@@H](n2cc(-c3ccc(-c4ccccc4)cc3)nn2)C1)N1CCC(F)(F)C1`, the IC50 (Dipeptidyl peptidase 4 [12]) is reported as 660 nM.

With `Cc1cc(=O)oc2cc(NC(=O)CN3CCNCC3)ccc12` the inhibition (Dipeptidyl peptidase 4 [13]) was 52.9%.

Compound `O=C1O[C@H]([C@@H](O)CO)C(O)=C1O` [ASCORBIC ACID] has an IC50 [14] of 34.69 µg/mL (≈ 197 µM).

`O=C(CN1CCN(c2ccnc3cc(Cl)ccc23)CC1)N1CCCC1` showed an Activity (Rattus norvegicus [8]) of 25.5%, an Activity (Rattus norvegicus [9]) of 26.4% and an Activity (Rattus norvegicus [10]) of 14.6%.

In the case of `CCOC(=O)c1ccc2cc(OCC(=O)N3CCCCC3)c(=O)oc2c1`, the inhibition (Dipeptidyl peptidase 4 [15]) is reported as 1.3%.

Compound `O=C(CNc1cc2ccc3ccccc3c2oc1=O)Nc1ccc(F)cc1` has an inhibition (Dipeptidyl peptidase 4 [15]) of 26.7%.

In the case of `CCN(CC)S(=O)(=O)c1cc(C(=O)NC[C@@H]2CCCN2C(=O)C[C@H](N)[C@H]2CCc3cc(F)c(F)cc32)ccc1F`, the IC50 (Dipeptidyl peptidase 4 [1]) is reported as 0.87 nM.

In the case of `N#C[C@@H]1CCCN1C(=O)[C@@H](N)CCC(=O)N1CCn2cnnc2C1`, the half-life [16] is reported as < 24 h and the Ratio IC50 (Homo sapiens) is reported as > 1000.

Work on `NCC1CN(CCCc2ccc3c(c2)OCO3)C(=O)CC1c1cc(F)ccc1F` (stereo not given) yielded an Activity (Mus musculus [17]) of 38.9%.

For `COc1ccc(CCNC(=S)N/C=C2\C(=O)Oc3ccccc3C2=O)cc1OC`, the inhibition (Dipeptidyl peptidase 4 [18]) was > 50%.

Compound `Cc1ccc(NC(=O)CNc2cc3ccc4ccccc4c3oc2=O)cc1` has an inhibition (Dipeptidyl peptidase 4 [15]) of 26.7%.

With `NNC1=NC(N2C(=O)CSC2=O)=NC(NN)N1` (stereo not given) the IC5 (Dipeptidyl peptidase 4 [19]) was 6.25 µM.

In the case of `Cl.N[C@@H](CC(=O)N1CCn2c(nnc2C(F)(F)F)[C@H]1c1ccc(F)cc1)Cc1cc(F)c(F)cc1F`, the IC5 (Dipeptidyl peptidase 4 [19]) is reported as 0.00018 µM and the bioavailability [20] is reported as 76%.

`N[C@@H](CC(=O)N1CCC[C@H]1CNC(=O)c1cc(S(=O)(=O)N2CCCCC2)c(F)cc1F)[C@H]1CCc2cc(F)c(F)cc21` showed an IC50 (Dipeptidyl peptidase 4 [1]) of 0.87 nM.

`N#C[C@@H]1CCCN1C(=O)CNC12CC3CC(CC(O)(C3)C1)C2` [VILDAGLIPTIN] gave a glucose AUC [6] of 904 mmol/L/min, an Activity (Mus musculus [21]) of 30% and an Activity (Mus musculus [22]) of 24.1%.

With `N#C[C@@H]1CCCN1C(=O)[C@@H](N)CCC(=O)N1CCn2cc(C(F)(F)F)nc2C1.O=C(O)C(F)(F)F` the half-life [16] was < 24 h and the Ratio IC50 (Homo sapiens) was > 1000.

With `CC#CCn1c(N2CCC[C@@H](N)C2)cc(=O)n(Cc2cn(CCC(=O)OC)nn2)c1=O` the Activity (Mus musculus [23]) was 40.4%, the Activity (Mus musculus [24]) was 31.4% and the IC50 (Dipeptidyl peptidase 4 [25]) was 64 nM.

In the case of `CC#CCn1c(N2CCC[C@@H](N)C2)cc(=O)n(Cc2cn(CCC(=O)O)nn2)c1=O`, the Activity (Mus musculus [24]) is reported as 21.2% and the IC50 (Dipeptidyl peptidase 4 [25]) is reported as 12.4 nM.

`O=C([C@H]1CC[C@@H](n2cc(-c3ccccc3O)nn2)C1)N1CCC(F)(F)C1` gave an IC50 (Dipeptidyl peptidase 4 [12]) of 620 nM.

Compound `N[C@@H](CC(=O)N1CCC[C@H]1CNC(=O)c1ccc(F)c(S(N)(=O)=O)c1)[C@H]1CCc2cc(F)c(F)cc21` has an IC50 (Dipeptidyl peptidase 4 [1]) of 0.87 nM.

Work on `O=C(CN1CCN(c2ccnc3cc(Cl)ccc23)CC1)N1CCOCC1` yielded an Activity (Rattus norvegicus [8]) of 17.4%.
